These results are taken from US6479487B1, “6, 9-disubstituted 2-[trans-(4-aminocyclohexyl)amino] purines” (Aventis Pharmaceuticals Inc., priority 1998, dated 2002).

One experiment deals with T1, cdk2/cyclin E (Homo sapiens, UniProt P24941).
T1 construct: made in house; host or cells: insect cells (baculovirus co-infection)
In words: Cyclin-Dependent Kinase 2 Assay (cdk2/cyclin E, GST-Rb substrate). In kind it is biochemical. To be noted: recombinant cdk2/cyclin E, 10 μM ATP, 30 min at 30° C., several values in a cell = separate determinations, read-out: CDK-2 Inhibition IC50. The protocol: Substrate: GST-Rb as described above for cdk4/cyclin D1
Assay conditions for cdk2/cyclin E were identical to those for cdk4/cyclin D1 including the substrate. The concentration of recombinant cdk2/cyclin E in the assay was 0.1 μg per 100 μl assay. Incubation was for 30 min at 30° C.

The target of another experiment is T2, cdk4/cyclin D1 (Homo sapiens, UniProt P11802).
T2 construct: made in house; host or cells: Sf9 insect cells (Bac-to-Bac baculovirus, pFastBac)
In words: Cyclin-dependent Kinase 4 Assay (cdk4/cyclin D1, GST-Rb substrate). In kind it is biochemical. To be noted: cdk4/cyclin D1 insect cell lysate, 10 μM ATP, 30 min at 37° C., several values = separate determinations, read-out: CDK4 Inhibition IC50. Summed up:
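IC50 against cdk4 measured by scintillation counting of bead-bound GST-Rb (0.5 μg) after filtration and four TNEN washes. Reaction was 30 min at 37 °C in HEPES pH 7.5 buffer with 10 mM MgCl2 and 1 mM EGTA. Enzyme source was 0.1 μg Sf9 lysate coinfected with cdk4 and cyclin D1.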

The subject of the next experiment is MDA-MB-231. The experiment is described as follows: In vitro tumor cell proliferation, MDA-MB-231. The note with it: sulforhodamine B or CyQUANT assay, many values given with an undefined *, read-out: In vitro Tumor Cell Proliferation (IC50, μM) Breast MDA-MB-231. In kind it is cell-based, human. Summed up:
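Proliferation quantified by SRB staining of TCA-fixed cells after 3 days of drug plus 4 days with replenished drug, following overnight attachment at 37 °C.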

In another experiment the test system is MDA-MB-435. The experiment is described as follows: In vitro tumor cell proliferation, MDA-MB-435. In kind it is cell-based. The note with it: values given with an undefined *, read-out: In vitro Tumor Cell Proliferation (IC50, μM) Breast MDA-MB-435. Summed up: (§1)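 Two read-outs were used: sulforhodamine B after 3 + 4 days of drug with re-dosing at medium change, or CyQUANT after 3 days of drug and freezing of plates at −80° C for at least 30 minutes.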

The subject of the next experiment is HT-29. In words: In vitro tumor cell proliferation, HT-29. In kind it is cell-based, human. To be noted: many values given with an undefined *, read-out: In vitro Tumor Cell Proliferation (IC50, μM) Colon HT-29. The procedure, abridged:
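Growth was quantified either with CyQUANT, plates frozen at −80° C after 3 days of drug, or by sulforhodamine B staining of TCA-fixed cells after 3 days of drug plus 4 days with fresh drug. Trypan blue-excluding HT-29 cells were plated overnight at 37° C before dosing.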

The test system of the next experiment is Colo-205. The experiment is described as follows: In vitro tumor cell proliferation, Colo-205. In kind it is cell-based. To be noted: values given with an undefined *, read-out: In vitro Tumor Cell Proliferation (IC50, μM) Colon Colo-205. The procedure, abridged: as §1
In a further experiment the test system is A549. The experiment is described as follows: In vitro tumor cell proliferation, A549. The note with it: many values given with an undefined *, read-out: In vitro Tumor Cell Proliferation (IC50, μM) Lung A549. In kind it is cell-based, human. Summed up:
as §1

For a further experiment, the system named is DMS-114. The experiment is described as follows: In vitro tumor cell proliferation, DMS-114. The note with it: many values given with an undefined *, read-out: In vitro Tumor Cell Proliferation (IC50, μM) Lung DMS-114. In kind it is cell-based, human. The procedure, abridged:
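Human small cell lung carcinoma DMS-114 cells plated overnight, then drug-treated for 3 days, medium and drug renewed, and incubated 4 more days. Growth read by sulforhodamine B staining after TCA fixation; alternatively by CyQUANT after 3 days' drug exposure and freezing at −80 °C.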

A further experiment relates to PC-3. In words: In vitro tumor cell proliferation, PC-3. In kind it is cell-based, human. To be noted: many values given with an undefined *, read-out: In vitro Tumor Cell Proliferation (IC50, μM) Prostate PC-3. The procedure, abridged: as §1
The test system of another experiment is DU145. In words: In vitro tumor cell proliferation, DU145. In kind it is cell-based, human. To be noted: many values given with an undefined *, read-out: In vitro Tumor Cell Proliferation (IC50, μM) Prostate DU145. Summed up: as §1
The mark [1] stands for this setting: Homo sapiens, MDA-MB-231, MDA-MB-231.
Where [2] appears, read: Homo sapiens, MDA-MB-435, MDA-MB-435.
Setting [3] is: Homo sapiens, COLO 205, Colo-205.

“And” between values parts separate entries of the source, which are not always exact repeats. Equal values may be shown once. Where a name gives a salt, the structure may show the parent alone. Read-outs that look alike come from different tables or passages of the source.

T2 sequence (P11802 whole entry): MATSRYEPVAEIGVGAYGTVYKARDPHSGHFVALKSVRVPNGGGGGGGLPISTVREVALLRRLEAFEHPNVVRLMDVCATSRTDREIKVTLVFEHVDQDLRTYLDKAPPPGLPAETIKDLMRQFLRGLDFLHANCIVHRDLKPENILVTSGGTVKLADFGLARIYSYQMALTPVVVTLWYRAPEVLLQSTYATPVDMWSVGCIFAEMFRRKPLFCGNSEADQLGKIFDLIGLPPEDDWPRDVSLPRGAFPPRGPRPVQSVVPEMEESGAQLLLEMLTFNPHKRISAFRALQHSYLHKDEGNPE
T2 sequence (P24385 whole entry partner): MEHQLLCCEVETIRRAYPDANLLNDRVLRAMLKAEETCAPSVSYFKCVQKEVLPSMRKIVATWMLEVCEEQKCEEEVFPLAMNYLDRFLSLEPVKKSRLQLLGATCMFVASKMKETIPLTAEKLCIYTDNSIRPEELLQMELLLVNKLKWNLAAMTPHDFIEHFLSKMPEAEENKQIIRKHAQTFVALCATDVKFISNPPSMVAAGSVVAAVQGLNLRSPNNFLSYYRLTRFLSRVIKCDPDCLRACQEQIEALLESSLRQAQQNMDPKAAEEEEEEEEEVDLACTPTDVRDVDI

As to `Cc1ccc(CN2CCC(Nc3nc(N[C@H]4CC[C@H](N)CC4)nc4c3ncn4C3CCCC3)CC2)cc1Cl` [Example 147-y, 2-[Trans-(4-aminocyclohexyl)amino]-6-[4-[1-(3-chloro-4-methylbenzyl)]piperidinylamino]-9-cyclopentylpurine trihydrochloride], the IC50 was 0.51 µM and 0.67 µM at cdk2/cyclin E (trihydrochloride); 5.4 µM and 4.8 µM at cdk4/cyclin D1 (trihydrochloride); 0.34 µM and 0.35 µM in the experiment with MDA-MB-231 (MDA-MB-231, trihydrochloride); 0.47 µM and 0.55 µM in the experiment with MDA-MB-435 (MDA-MB-435, trihydrochloride); 0.41 µM and 0.38 µM in the experiment on HT-29 (HT-29, trihydrochloride); 0.32 µM and 0.35 µM in the experiment with Colo-205 (Colo-205, trihydrochloride). For the same molecule, the IC50 in the experiment on A549 (A549, trihydrochloride) is 0.16 µM and 0.29 µM; in the experiment on DMS-114 (DMS-114, trihydrochloride), 0.4 µM and 0.45 µM; with PC-3 (PC-3, trihydrochloride), 0.35 µM and 0.46 µM; in the experiment on DU145 (DU145, trihydrochloride), 0.33 µM and 0.35 µM.
`N[C@H]1CC[C@H](Nc2nc(NCc3cccc4ccccc34)c3ncn(C4CCCC4)c3n2)CC1` [Example 7, 2-[Trans-(4-aminocyclohexyl)amino]-6-[(1-napthyl)methylamino]-9-cyclopentylpurine dihydrochloride]: the IC50 at cdk2/cyclin E was 0.16 µM; on cdk4/cyclin D1, 1.4 µM; with MDA-MB-231 (setting [1]) it was 4.4 µM; in the experiment on MDA-MB-231 (MDA-MB-231, dihydrochloride), 4.9 µM; in the experiment with MDA-MB-435 (setting [2]) it was 11 µM; with MDA-MB-435 (MDA-MB-435, dihydrochloride), 10 µM. The IC50 turned out to be 4.8 µM in the experiment with HT-29 (HT-29, dihydrochloride); 4.6 µM with HT-29 (Homo sapiens, HT-29, HT-29); 3.5 µM in the experiment on Colo-205 (Colo-205, dihydrochloride); 3.4 µM in the experiment with Colo-205 (setting [3]); 3.4 µM in the experiment with A549 (Homo sapiens, A549, A549); 3.3 µM in the experiment with DMS-114 (DMS-114, dihydrochloride). Further, the IC50 came to 2.8 µM with DMS-114 (Homo sapiens, DMS-114, DMS-114); 4.2 µM with PC-3 (Homo sapiens, PC-3, PC-3); 4.8 µM in the experiment with PC-3 (PC-3, dihydrochloride); 5.2 µM in the experiment on DU145 (DU145, dihydrochloride); 5.5 µM in the experiment on DU145 (Homo sapiens, DU-145, DU145).
With `N[C@H]1CC[C@H](Nc2nc(NC3CCN(Cc4ccc5ccccc5c4)CC3)c3ncn(C4CCCC4)c3n2)CC1` [Example 147-p, 2-[Trans-(4-aminocyclohexyl)amino]-6-[4-[1-(2-naphthyl)methyl]piperidinylamino]-9-cyclopentylpurine trihydrochloride], the IC50 on cdk2/cyclin E was 0.3 µM and 0.11 µM and 0.36 µM; at cdk4/cyclin D1, 3.1 µM and 3.9 µM; in the experiment with MDA-MB-231 (setting [1]), 0.57 µM; in the experiment on MDA-MB-231 (MDA-MB-231, trihydrochloride), 0.6 µM; with MDA-MB-435 (setting [2]) it was 0.59 µM; in the experiment with MDA-MB-435 (MDA-MB-435, trihydrochloride) it was 0.68 µM. The IC50 came out at 0.72 µM in the experiment with HT-29 (HT-29, trihydrochloride); 0.71 µM in the experiment on HT-29 (Homo sapiens, HT-29, HT-29); 0.48 µM in the experiment on Colo-205 (Colo-205, trihydrochloride); 0.45 µM with Colo-205 (setting [3]); 0.34 µM in the experiment with A549 (A549, trihydrochloride); 0.39 µM with A549 (Homo sapiens, A549, A549). In addition, the IC50 in the experiment on DMS-114 (DMS-114, trihydrochloride) came to 0.68 µM; in the experiment on DMS-114 (Homo sapiens, DMS-114, DMS-114), 0.91 µM; in the experiment on PC-3 (Homo sapiens, PC-3, PC-3), 0.46 µM; with PC-3 (PC-3, trihydrochloride), 0.66 µM; in the experiment on DU145 (Homo sapiens, DU-145, DU145) it was 0.54 µM.
Consider `Cc1ccccc1CN1CCC(Nc2nc(N[C@H]3CC[C@H](N)CC3)nc3c2ncn3C2CCCC2)CC1` [Example 44, 2-[Trans-(4-aminocyclohexyl)amino]-6-[4-(1-(2-methylbenzyl))piperidinylamino]-9-cyclopentylpurine], for which the IC50 is 0.23 µM and 0.13 µM and 0.34 µM at cdk2/cyclin E; 2.3 µM at cdk4/cyclin D1; 0.2 µM with MDA-MB-231 (setting [1]); 0.22 µM in the experiment with MDA-MB-231 (MDA-MB-231); 0.24 µM with MDA-MB-435 (setting [2]); 0.27 µM with MDA-MB-435 (MDA-MB-435). In addition, the IC50 in the experiment on HT-29 (Homo sapiens, HT-29, HT-29) was 0.22 µM; in the experiment on Colo-205 (Colo-205), 0.17 µM; in the experiment with Colo-205 (setting [3]), 0.16 µM; in the experiment with A549 (A549), 0.09 µM; in the experiment on A549 (Homo sapiens, A549, A549) it was 0.15 µM; in the experiment on DMS-114 (DMS-114) it was 0.21 µM. Moreover, the IC50 was determined as 0.28 µM in the experiment with DMS-114 (Homo sapiens, DMS-114, DMS-114); 0.16 µM with PC-3 (Homo sapiens, PC-3, PC-3); 0.22 µM in the experiment on PC-3 (PC-3); 0.16 µM in the experiment with DU145 (Homo sapiens, DU-145, DU145).
For the molecule `N[C@H]1CC[C@H](Nc2nc(Nc3cccc(F)c3)c3ncn(C4CCCC4)c3n2)CC1` [Example 21, 2-[Trans-(4-aminocyclohexyl)amino]-6-(3-fluorophenylamino)-9-cyclopentylpurine dihydrochloride], the IC50 on cdk2/cyclin E is 0.082 µM and 0.08 µM; at cdk4/cyclin D1, 0.23 µM and 0.97 µM; with MDA-MB-231 (setting [1]), 1.3 µM; with MDA-MB-435 (setting [2]), 1.9 µM; with MDA-MB-435 (MDA-MB-435, dihydrochloride), 2.3 µM; in the experiment on HT-29 (HT-29, dihydrochloride), 1.7 µM. Further, the IC50 turned out to be 1.6 µM in the experiment on HT-29 (Homo sapiens, HT-29, HT-29); 1.1 µM in the experiment on Colo-205 (Colo-205, dihydrochloride); 1.2 µM with Colo-205 (setting [3]); 1 µM with A549 (A549, dihydrochloride); 0.6 µM in the experiment on A549 (Homo sapiens, A549, A549); 0.7 µM in the experiment with DMS-114 (DMS-114, dihydrochloride). Further, the IC50 with DMS-114 (Homo sapiens, DMS-114, DMS-114) came out at 1.1 µM; in the experiment on PC-3 (Homo sapiens, PC-3, PC-3), 1.3 µM; with PC-3 (PC-3, dihydrochloride), 0.7 µM; in the experiment with DU145 (DU145, dihydrochloride), 0.9 µM; in the experiment with DU145 (Homo sapiens, DU-145, DU145), 0.7 µM.
